Source: patent US8247211B2, “Glycopeptide antibiotics” (American Cyanamid Company, priority 2001, dated 2012)

Experiments:
Test in all cases: In vitro antibacterial evaluation: minimum inhibitory concentration (MIC), broth dilution method
Type in all cases: cell-based
Staphylococcus sp. = conditions: broth dilution, 18 hours at 35° C.; for MIC Staphylococcus aureus-SMITH (GC 4543): strain SMITH GC 4543
How it was run: (§1)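 An MIC is reported for each organism as the least concentration giving inhibition, using broth dilution over 64-0.06 μg/mL with a 5×10^5 CFU/mL inoculum.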

Enterococcus sp. = conditions: broth dilution, 18 hours at 35° C.
How it was run: as §1

Streptococcus sp. = conditions: broth dilution, 18 hours at 35° C.
How it was run: as §1

Escherichia coli = conditions: broth dilution, 18 hours at 35° C.
[1] = Enterococcus faecalis (GC 4553)
[2] = Streptococcus agalactiae (GC 4564)
[3] = Streptococcus pneumoniae (ATCC 6301)
[4] = Streptococcus pneumoniae (GC 1894)
[5] = Streptococcus pneumoniae (GC 4565)
[6] = Streptococcus pyogenes (GC 4563)

COc1ccc(Oc2cccc(-c3nc4cc(CC5NC(=O)C(C(C)c6ccccc6)NC(=O)CNC(=O)C(CO)NC(=O)C(C(O)C6CNC(=N)N6C6OC(CO)C(O)C(O)C6O)NC(=O)C(C(O)C6CNC(=N)N6)NC5=O)ccc4o3)c2)cc1 (stereo not shown) [Example 35]
4 µg/mL: MIC Enterococcus faecium (GC 4557) (Enterococcus sp.; Enterococcus faecium (GC 4557)) | MIC Enterococcus faecium (GC 4557) (Enterococcus sp.)
2 µg/mL: MIC Coagulase Negative Staphylococcus (GC 6257) (Staphylococcus sp.) | MIC Streptococcus pyogenes (GC 4563) (Streptococcus sp.; [6]) | MIC Streptococcus pyogenes (GC 4563) (Streptococcus sp.)
32 µg/mL: MIC Enterococcus faecalis (GC 3059) (Enterococcus sp.; Enterococcus faecalis (GC 3059)) | MIC Enterococcus faecalis (GC 4552) (Enterococcus sp.; Enterococcus faecalis (GC 4552)) | MIC Enterococcus faecalis (GC 4554) (Enterococcus sp.; Enterococcus faecalis (GC 4554)) | MIC Enterococcus faecium (GC 4556) (Enterococcus sp.; Enterococcus faecium (GC 4556)) | MIC Enterococcus faecalis (GC 3059) (Enterococcus sp.) | MIC Enterococcus faecalis (GC 4552) (Enterococcus sp.) | MIC Enterococcus faecalis (GC 4554) (Enterococcus sp.) | MIC Enterococcus faecium (GC 4556) (Enterococcus sp.)
16 µg/mL: MIC Enterococcus faecalis (ATCC 29212) (Enterococcus sp.; Enterococcus faecalis (ATCC 29212)) | MIC Enterococcus faecalis (GC 2242) (Enterococcus sp.; Enterococcus faecalis (GC 2242)) | MIC Enterococcus faecalis (GC 2691) (Enterococcus sp.; Enterococcus faecalis (GC 2691)) | MIC Enterococcus faecalis (GC 6189) (Enterococcus sp.; Enterococcus faecalis (GC 6189)) | MIC Enterococcus faecalis (ATCC 29212) (Enterococcus sp.) | MIC Enterococcus faecalis (GC 2242) (Enterococcus sp.) | MIC Enterococcus faecalis (GC 2691) (Enterococcus sp.) | MIC Enterococcus faecalis (GC 6189) (Enterococcus sp.) | MIC Streptococcus pneumoniae (GC 4565) (Streptococcus sp.; [5]) | MIC Streptococcus pneumoniae (GC 4565) (Streptococcus sp.) | MIC Escherichia coli (GC 4560) (Escherichia coli)
8 µg/mL: MIC Coagulase Negative Staphylococcus (GC 4547) (Staphylococcus sp.) | MIC Coagulase Negative Staphylococcus (GC 4548) (Staphylococcus sp.) | MIC Coagulase Negative Staphylococcus (GC 4549) (Staphylococcus sp.) | MIC Coagulase Negative Staphylococcus (GC 4551) (Staphylococcus sp.) | MIC Staphylococcus aureus SMITH (GC 4543) (Staphylococcus sp.) | MIC Staphylococcus haemolyticus (GC 4546) (Staphylococcus sp.) | MIC Staphylococcus aureus-SMITH (GC 4543) (Staphylococcus sp.) | MIC Enterococcus avium (GC 4558) (Enterococcus sp.; Enterococcus avium (GC 4558)) | MIC Enterococcus faecalis (GC 4553) (Enterococcus sp.; [1]) | MIC Enterococcus faecium (GC 2243) (Enterococcus sp.; Enterococcus faecium (GC 2243)) | MIC Enterococcus avium (GC 4558) (Enterococcus sp.) | MIC Enterococcus faecalis (GC 4553) (Enterococcus sp.) | MIC Enterococcus faecium (GC 2243) (Enterococcus sp.) | MIC Streptococcus agalactiae (GC 4564) (Streptococcus sp.; [2]) | MIC Streptococcus pneumoniae (ATCC 6301) (Streptococcus sp.; [3]) | MIC Streptococcus pneumoniae (GC 1894) (Streptococcus sp.; [4]) | MIC Streptococcus agalactiae (GC 4564) (Streptococcus sp.) | MIC Streptococcus pneumoniae (ATCC 6301) (Streptococcus sp.) | MIC Streptococcus pneumoniae (GC 1894) (Streptococcus sp.)

CC(c1ccccc1)C1NC(=O)CNC(=O)C(CO)NC(=O)C(C(O)C2CNC(=N)N2C2OC(CO)C(O)C(O)C2O)NC(=O)C(C(O)C2CNC(=N)N2)NC(=O)C(Cc2ccc3oc(-c4ccoc4)nc3c2)NC1=O (stereo not drawn) [Example 38, Cyclo[3-[2-(3-furyl)-1,3-benzoxazol-5-yl]alanyl-3-(2-iminoimidazolidin-4-yl)seryl-3-(3-hexopyranosyl-2-iminoimidazolidin-4-yl)serylserylglycyl-β-methylphenylalanyl]]
32 µg/mL: MIC Coagulase Negative Staphylococcus (GC 4547) (Staphylococcus sp.) | MIC Coagulase Negative Staphylococcus (GC 4548) (Staphylococcus sp.) | MIC Enterococcus faecium (GC 4557) (Enterococcus sp.; Enterococcus faecium (GC 4557)) | MIC Enterococcus faecium (GC 4557) (Enterococcus sp.) | MIC Streptococcus agalactiae (GC 4564) (Streptococcus sp.; [2]) | MIC Streptococcus pneumoniae (ATCC 6301) (Streptococcus sp.; [3]) | MIC Streptococcus pneumoniae (GC 1894) (Streptococcus sp.; [4]) | MIC Streptococcus pyogenes (GC 4563) (Streptococcus sp.; [6]) | MIC Streptococcus agalactiae (GC 4564) (Streptococcus sp.) | MIC Streptococcus pneumoniae (ATCC 6301) (Streptococcus sp.) | MIC Streptococcus pneumoniae (GC 1894) (Streptococcus sp.) | MIC Streptococcus pyogenes (GC 4563) (Streptococcus sp.) | MIC Escherichia coli (GC 4560) (Escherichia coli)
16 µg/mL: MIC Coagulase Negative Staphylococcus (GC 6257) (Staphylococcus sp.) | MIC Staphylococcus haemolyticus (GC 4546) (Staphylococcus sp.)
64 µg/mL: MIC Coagulase Negative Staphylococcus (GC 4549) (Staphylococcus sp.) | MIC Coagulase Negative Staphylococcus (GC 4551) (Staphylococcus sp.) | MIC Staphylococcus aureus SMITH (GC 4543) (Staphylococcus sp.) | MIC Staphylococcus aureus-SMITH (GC 4543) (Staphylococcus sp.) | MIC Enterococcus avium (GC 4558) (Enterococcus sp.; Enterococcus avium (GC 4558)) | MIC Enterococcus faecalis (GC 4553) (Enterococcus sp.; [1]) | MIC Enterococcus avium (GC 4558) (Enterococcus sp.) | MIC Enterococcus faecalis (GC 4553) (Enterococcus sp.) | MIC Streptococcus pneumoniae (GC 4565) (Streptococcus sp.; [5]) | MIC Streptococcus pneumoniae (GC 4565) (Streptococcus sp.) | MIC Escherichia coli (ATCC 25922) (Escherichia coli) | MIC Escherichia coli (GC 4559) (Escherichia coli)
